From patent US6214859A, “Ethylamine derivatives” (Fujimoto Brothers Co., Ltd., priority 1997, dated 2001)

Columns and labels:
α1 receptor = experiment: Affinity to α1 receptor; set-up: species or system rat; settings: read-out: Affinity to α1 receptor (MIC50; mole concentration for 50% inhibition of binding); 0.25 nM ^3H-prazocin; 90 min
Method: The solution of receptor was prepared as follows. As soon as rats were decapitated, brain was removed and its weight was measured. Its brain was homogenized in ten times volumes of ice-cold 0.35 M sucrose (pH 7.4) by glass homogenizer with teflon pestle which was revolted by motors. Thereafter, the homogenate was centrifuged at 4° C. at 900×g for 10 min and the supernatant was, furthermore, recentrifuged at 4° C. at 22,000×g for 20 min. The precipitate was suspended by addition of 5 mM phosphate buffer solution (pH 7.4). After the suspension was incubated at 37° C. for 30 min, the suspension was recentrifuged at 4° C. at 22,000×g for 20 min. The precipitate was resuspended by addition of 10 ml of 5 mM phosphate buffer solution (pH 8.0). The precipitate was used as the solution of receptor.
^3 H-prazocin was used as a ligand. 0.25 nM ^3 H-prazocin in 5 mM phosphate buffer (pH 8.0), the compound of this invention and the solution of receptor were added in tube and the mixture were incubated at 25° C. for 90 min. In addition, the […] binding was shown by binding value of ^3 H-prazocin under the coexistence with 0.1 μM prazocin. The binding reaction was carried out as follows. After ^3 H-prazocin (binding type: B) bound to receptor using glassfiberfilter (pore size: 0.5 μm, Whatman GF/C.) and free type of prazocin (free type: F) were separated with B/F separator (Brandel, USA), only the binding type of ^3 H-prazocin was collected. The binding type of ^3 H-prazocin absorbed to glass-fiber filter was washed with ice-cold saline solution and was remove to vial. After 10 ml of scintillation cocktail was added in it, the radioactivity was determined. From the binding inhibition rate of α1 receptor and ligand, affinity of the compounds of this invention to α1 receptor was measured.
If affinity of certain compound to a receptor is high, the binding ligand and receptor is inhibited.

D1 receptor = target: T1, D1 receptor (Rattus norvegicus, UniProt P18901); experiment: Affinity to D1 receptor; assay type: binding
T1 construct: The precipitate was used as the solution of receptor; from tissue; host or cells: rat brain (whole) crude membranes
T1 sequence (P18901 whole entry): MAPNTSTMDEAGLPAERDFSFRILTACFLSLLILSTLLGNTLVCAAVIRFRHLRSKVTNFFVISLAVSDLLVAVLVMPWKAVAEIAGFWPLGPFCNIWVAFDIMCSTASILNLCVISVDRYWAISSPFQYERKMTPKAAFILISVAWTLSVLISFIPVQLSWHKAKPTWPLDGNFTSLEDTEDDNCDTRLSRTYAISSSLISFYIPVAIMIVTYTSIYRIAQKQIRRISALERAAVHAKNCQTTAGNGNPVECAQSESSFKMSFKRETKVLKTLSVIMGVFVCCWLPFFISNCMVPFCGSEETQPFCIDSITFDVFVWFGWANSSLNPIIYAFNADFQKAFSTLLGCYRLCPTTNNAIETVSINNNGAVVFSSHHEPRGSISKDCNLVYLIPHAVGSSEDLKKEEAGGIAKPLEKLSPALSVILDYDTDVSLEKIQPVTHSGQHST

**Q.** Which results are given for CCCNC(CCC)Cc1c[nH]c2ccccc12.Cl (centres unmarked) [Compound No. 20, 1-(Indol-3-yl)-2-propylaminopentane Hydrochloride]?
**A.** IC50 (α1 receptor): 80 µM; IC50 (D1 receptor): > 10 µM
